Experimental data as given in PubChem BioAssay AID264 (DTP/NCI, 2004).
Where “and” joins values, the source holds several entries; their conditions need not be identical. Equal values may be shown once. Results filed as inconclusive are left out.

Tested on: nude mice, LX-1 lung xenograft intrarenal, tumor weight T/C
Assay: NCI In Vivo Anticancer Drug Screen. Data for tumor model Human Lung LX-1 Xenograft (intrarenal inoculation) in NU/NU Swiss (nude) mice
Conditions: endpoint: mean tumor weight change, higher = larger tumour
Method: The antitumor activity of compounds was measured in mice bearing transplantable tumors. Survival or tumor size were measured and the results are expressed as the measurement made in the treated group (T) divided by the measurement made in the vehicle treated control group (C). The tumor model used in this assay is Human Lung LX-1 Xenograft (intrarenal inoculation) in NU/NU Swiss (nude) mice

[1] = dose: 150.0 mg/kg/injection, schedule: Q04DX003 (sc), vehicle: saline with Tween-80
[2] = dose: 300.0 mg/kg/injection, schedule: Q04DX003 (sc), vehicle: saline with Tween-80
[3] = dose: 600.0 mg/kg/injection, schedule: Q04DX003 (sc), vehicle: saline with Tween-80
[4] = dose: 1200.0 mg/kg/injection, schedule: Q04DX003 (sc), vehicle: saline with Tween-80

## O=C/C(Cl)=C(/Cl)C(=O)O
dose: 5.0 mg/kg/injection, schedule: Q01DX010 (sc), vehicle: saline with Tween-80
  T/C: 124 % of control
dose: 10.0 mg/kg/injection, schedule: Q01DX010 (sc), vehicle: saline with Tween-80
  T/C: 210 % of control
dose: 20.0 mg/kg/injection, schedule: Q01DX010 (sc), vehicle: saline with Tween-80
  T/C: 72 % of control and 213 % of control
dose: 40.0 mg/kg/injection, schedule: Q01DX010 (sc), vehicle: saline with Tween-80
  T/C: 48 % of control and 65 % of control

## O=CC(O)C(O)C(O)C(O)C(=O)O.[NH-]C1CCCCC1[NH-].[Pt+2] (stereo not drawn)
dose: 9.38 mg/kg/injection, schedule: Q04DX003 (sc), vehicle: suspension in saline
  T/C: 39 % of control
dose: 18.75 mg/kg/injection, schedule: Q04DX003 (sc), vehicle: suspension in saline
  T/C: 46 % of control

## [I][Hg][CH2]C1COC([CH2][Hg][I])CO1 (stereo not drawn)
[1]
  T/C: 105 % of control
[2]
  T/C: 97 % of control
[3]
  T/C: 80 % of control
[4]
  T/C: 97 % of control

## CC(C)CC(=O)NC(C(=O)NC(C(=O)NC(CC(C)C)C(O)CC(=O)NC(C)C(=O)NC(CC(C)C)C(O)CC(=O)O)C(C)C)C(C)C (stereo not drawn)
dose: 150.0 mg/kg/injection, schedule: Q04DX003 (sc), vehicle: Klucel (hydroxypropylcellulose) (HPC)
  T/C: 70 % of control
dose: 300.0 mg/kg/injection, schedule: Q04DX003 (sc), vehicle: Klucel (hydroxypropylcellulose) (HPC)
  T/C: 93 % of control
dose: 600.0 mg/kg/injection, schedule: Q04DX003 (sc), vehicle: Klucel (hydroxypropylcellulose) (HPC)
  T/C: 66 % of control
dose: 1200.0 mg/kg/injection, schedule: Q04DX003 (sc), vehicle: Klucel (hydroxypropylcellulose) (HPC)
  T/C: 51 % of control

## O=Cc1c(O)c2ccccc2[nH]c1=O
[1]
  T/C: 84 % of control
[2]
  T/C: 99 % of control
[3]
  T/C: 90 % of control
[4]
  T/C: 50 % of control

## N=c1ccn2c(n1)OC1C(O)C(CO)OC12 (stereo not drawn)
dose: 37.5 mg/kg/injection, schedule: Q04DX003 (sc), vehicle: saline
  T/C: 91 % of control
dose: 75.0 mg/kg/injection, schedule: Q04DX003 (sc), vehicle: saline
  T/C: 95 % of control
dose: 150.0 mg/kg/injection, schedule: Q04DX003 (sc), vehicle: saline
  T/C: 121 % of control
dose: 300.0 mg/kg/injection, schedule: Q04DX003 (sc), vehicle: saline
  T/C: 77 % of control
dose: 300.0 mg/kg/injection, schedule: Q04DX003 (sc), vehicle: suspension in saline
  T/C: 176 % of control
dose: 600.0 mg/kg/injection, schedule: Q04DX003 (sc), vehicle: suspension in saline
  T/C: 231 % of control
dose: 800.0 mg/kg/injection, schedule: Q04DX003 (sc), vehicle: saline
  T/C: 24 % of control and 48 % of control
dose: 1200.0 mg/kg/injection, schedule: Q04DX003 (sc), vehicle: suspension in saline
  T/C: 41 % of control
dose: 1600.0 mg/kg/injection, schedule: Q04DX003 (sc), vehicle: saline
  T/C: 18 % of control and 31 % of control
dose: 2400.0 mg/kg/injection, schedule: Q04DX003 (sc), vehicle: suspension in saline
  T/C: 36 % of control
dose: 3200.0 mg/kg/injection, schedule: Q04DX003 (sc), vehicle: saline
  T/C: 6 % of control and 18 % of control

## CC1(C)OC(=O)N(CO)C1=O
dose: 25.0 mg/kg/injection, schedule: Q01DX010 (sc), vehicle: saline
  T/C: 51 % of control
dose: 100.0 mg/kg/injection, schedule: Q01DX010 (sc), vehicle: saline
  T/C: 116 % of control
dose: 200.0 mg/kg/injection, schedule: Q01DX010 (sc), vehicle: saline
  T/C: 110 % of control

## OC(CCl)CN1CC[N+]2(CC1)CC[N+]1(CCN(CC(O)CCl)CC1)CC2 (stereo not drawn)
dose: 128.0 mg/kg/injection, schedule: Q01DX010 (sc), vehicle: water
  T/C: 78 % of control
dose: 256.0 mg/kg/injection, schedule: Q01DX010 (sc), vehicle: water
  T/C: 59 % of control

## CN1CCN(c2ccc3nc(-c4ccc5nc(-c6ccc(O)cc6)[nH]c5c4)[nH]c3c2)CC1
dose: 200.0 mg/kg/injection, schedule: Q04DX003 (sc), vehicle: saline
  T/C: 73 % of control
dose: 400.0 mg/kg/injection, schedule: Q04DX003 (sc), vehicle: saline
  T/C: 73 % of control

## Cc1ncc([N+](=O)[O-])n1CCSC(N)=O
dose: 50.0 mg/kg/injection, schedule: Q01DX010 (sc), vehicle: saline with Tween-80
  T/C: 90 % of control

## O=c1[nH]c(=O)n([C@H]2CCCO2)cc1F
dose: 50.0 mg/kg/injection, schedule: Q01DX010 (sc), vehicle: Klucel (hydroxypropylcellulose) (HPC)
  T/C: 37 % of control
dose: 200.0 mg/kg/injection, schedule: Q01DX010 (sc), vehicle: Klucel (hydroxypropylcellulose) (HPC)
  T/C: 93 % of control
dose: 400.0 mg/kg/injection, schedule: Q01DX010 (sc), vehicle: Klucel (hydroxypropylcellulose) (HPC)
  T/C: 103 % of control

## COc1cc2c[n+](C)c3c4cc5c(cc4ccc3c2cc1OC)OCO5
dose: 100.0 mg/kg/injection, schedule: Q04DX003 (sc), vehicle: saline with Tween-80
  T/C: 157 % of control
dose: 200.0 mg/kg/injection, schedule: Q04DX003 (sc), vehicle: saline with Tween-80
  T/C: 92 % of control
dose: 800.0 mg/kg/injection, schedule: Q04DX003 (sc), vehicle: saline with Tween-80
  T/C: 109 % of control
